Test results: ChEMBL document CHEMBL1147974, “Metabolic activation of indole-containing prostaglandin D2 receptor 1 antagonists: impacts of glutathione trapping and glucuronide conjugation on covalent binding” (Bioorg Med Chem Lett, 2007)

Tests used:
[1] = test system: Liver microsomes; test: Covalent binding in human liver microsomes at 10 uM after 1 hr; type: ADME, Microsome
[2] = test system: Liver microsomes; test: Covalent binding in rat liver microsomes after 60 mins assessed as GSH adduct formation; type: ADME, Microsome; conditions: 1 h
[3] = test system: Hepatocyte; test: Covalent binding in human hepatocytes at 10 uM after 1 hr; type: ADME, cell-based
[4] = test system: Liver microsomes; test: Covalent binding in rat liver microsomes at 10 uM after 1 hr; type: ADME, Microsome
[5] = test system: Hepatocyte; test: Covalent binding in rat hepatocytes at 10 uM after 1 hr; type: ADME, cell-based
[6] = test system: Liver microsomes; test: Covalent binding in human liver microsomes after 60 mins assessed as GSH adduct formation; type: ADME, Microsome; conditions: 1 h

| SMILES | Activity [1] | Activity [2] | Activity [3] | Activity [4] | Activity [5] | Activity [6] |
| --- | --- | --- | --- | --- | --- | --- |
| O=C(O)C[C@H]1CCc2c1n(Cc1ccc(Cl)cc1)c1c(Br)cc(F)cc21 | 33 pmol/mg | 22% | 33 pmol/mg | 460 pmol/mg | 74 pmol/mg | 5% |
| CC(=O)c1cc(F)cc2c3c(n(Cc4ccc(Cl)cc4)c12)[C@@H](CC(=O)O)CC3 | 46 pmol/mg | 41% | 16 pmol/mg | 290 pmol/mg | 45 pmol/mg | 15% |
| CC(=O)c1cc(S(C)(=O)=O)cc2c3c(n(Cc4ccc(Cl)cc4)c12)[C@@H](CC(=O)O)CC3 | 18 pmol/mg | < 0.5% | 5 pmol/mg | 23 pmol/mg | 8 pmol/mg | < 0.5% |
